Data as given in ChEMBL document CHEMBL3507680, “University of Dundee, Gates Library screen for HepG2 cell viability”.

Test: Human HepG2 cell viability assay in 384 well format
Type: toxicity, cell-based
Set-up: dose 125 nL, time 70.5 hour; concentration not given beside the values
Conditions: HepG2 cells, read-out: Inhibition

**Q.** Which cytotoxicity at 70.5 h does the source give for CN(C)CCO[C@@H]1CC[C@H]2[C@H]1OCCN2C(=O)c1ccccc1F here?
**A.** -10.8%

**Q.** Which cytotoxicity at 70.5 h does the source give for Cn1cccc1CN1CCc2ncnc(-c3cccnc3)c2CC1 here?
**A.** -4.34%

**Q.** With CN(C)CCO[C@@H]1CC[C@H]2[C@H]1OCCN2C(=O)c1ccncc1 as the molecule, how does the cytotoxicity at 70.5 h read?
**A.** -3.32%

**Q.** Which cytotoxicity at 70.5 h does the source give for Cc1cccc(C(=O)N2CCO[C@H]3[C@H](OCCN(C)C)CC[C@@H]32)n1 here?
**A.** -3.76%

**Q.** For CC1=N[C@@]2(CC[C@@H]3CN(C(=O)NC(C)C)C[C@@H]32)C(=O)N1CC1CC1, which cytotoxicity at 70.5 h is on record?
**A.** 1.82%

**Q.** For COCCN1C[C@@H](C)[C@@]2(COCCN(C(=O)c3ccoc3)C2)C1, which cytotoxicity at 70.5 h is on record?
**A.** 1.95%

**Q.** Which cytotoxicity at 70.5 h does the source give for COCC(=O)N1CC[C@H]2OCC[C@@]2(c2nc(C)no2)C1 here?
**A.** 12.4%

**Q.** For CN(C)c1ncnc2c1CCN(c1cc(C(F)(F)F)ncn1)CC2, which cytotoxicity at 70.5 h is on record?
**A.** -1.26%

**Q.** Which cytotoxicity at 70.5 h does the source give for CO[C@@H]1CCN(S(=O)(=O)c2cn(C)cn2)[C@H]1Cc1ccccc1 here?
**A.** -1.49%

**Q.** For CO[C@H]1CCN(S(=O)(=O)c2cn(C)cn2)[C@H]1Cc1ccncc1, which cytotoxicity at 70.5 h is on record?
**A.** -0.309%

**Q.** For Cn1cc(CN2CCc3ncn(C)c3C2COCc2ccccc2)cn1 (centres undefined), which cytotoxicity at 70.5 h is on record?
**A.** 2.01%

**Q.** With Cn1cnc2c1C(COCc1cccnc1)N(Cc1ccccc1)CC2 (centres undefined) as the molecule, how does the cytotoxicity at 70.5 h read?
**A.** 2.08%

**Q.** For CCN1C(=O)[C@]2(CC[C@@H]3CN(C(=O)NCC(C)C)C[C@@H]32)N=C1C, which cytotoxicity at 70.5 h is on record?
**A.** -2.72%

**Q.** Which cytotoxicity at 70.5 h does the source give for CC1=N[C@@]2(CC[C@@H]3CN(C(=O)NC(C)C)C[C@@H]32)C(=O)N1CC(C)C here?
**A.** -3.41%

**Q.** For Cc1nc(COCc2cnc3n2CCN(C(=O)C2CC2)C3C)cs1 (centres undefined), which cytotoxicity at 70.5 h is on record?
**A.** 11.4%

**Q.** Which cytotoxicity at 70.5 h does the source give for Cn1cc(N2CC3(CCN(S(C)(=O)=O)C3)CC2=O)cn1 (centres undefined) here?
**A.** 2.06%

**Q.** Which cytotoxicity at 70.5 h does the source give for CC(C)Oc1ncnc2c1CCN(Cc1cccs1)CC2 here?
**A.** -6.72%

**Q.** With COCC1CN(Cc2cc(C)on2)Cc2cn(C)nc21 (centres undefined) as the molecule, how does the cytotoxicity at 70.5 h read?
**A.** 3.15%

**Q.** With CN(C)CCO[C@@H]1CC[C@H]2[C@H]1OCCN2C(=O)c1ccc(F)cc1 as the molecule, how does the cytotoxicity at 70.5 h read?
**A.** -1.79%

**Q.** Which cytotoxicity at 70.5 h does the source give for CC[C@@H]1N(Cc2nccs2)CCC[C@]12CCC(=O)N2CCOC here?
**A.** -2.16%

**Q.** Which cytotoxicity at 70.5 h does the source give for C[C@H]1CN(C)C[C@@]12COCCN(C(=O)Cc1ccccc1)C2 here?
**A.** 0.777%

**Q.** Which cytotoxicity at 70.5 h does the source give for c1csc(CN2CCCn3cnc(COCC4CC4)c3C2)n1 here?
**A.** -0.793%

**Q.** With COc1ccc(C[C@H]2CN(c3cc(OC)ncn3)CC[C@@H]2OC)cc1 as the molecule, how does the cytotoxicity at 70.5 h read?
**A.** 4.78%

**Q.** Which cytotoxicity at 70.5 h does the source give for O=C(NCC1CC1)[C@@H]1CCO[C@@H]2CCN(c3ncccn3)C[C@@H]21 here?
**A.** -3.18%

**Q.** With CC(=O)N1CC(=O)N(c2ccccc2)CC12CCN(Cc1nccs1)C2 (centres undefined) as the molecule, how does the cytotoxicity at 70.5 h read?
**A.** -3.72%

**Q.** Which cytotoxicity at 70.5 h does the source give for CC(C)NC(=O)[C@H]1C[C@@H]2[C@@H](C1)OCCN2Cc1cnn(C)c1 here?
**A.** -4.89%

**Q.** Which cytotoxicity at 70.5 h does the source give for Cn1cc(CN2CCn3c(CNC(=O)c4cccn4C)cnc3C2)cn1 here?
**A.** 4.31%

**Q.** For O=C(N[C@@H]1CN(Cc2ccccc2)C[C@@H]2CCCO[C@@H]21)C1CC1, which cytotoxicity at 70.5 h is on record?
**A.** -1.76%

**Q.** Which cytotoxicity at 70.5 h does the source give for Cc1occc1C(=O)N1CCC[C@]2(C[C@@H](OCc3ccncc3)CO2)C1 here?
**A.** 6.49%

**Q.** Which cytotoxicity at 70.5 h does the source give for Cc1ccc(CN2CCC[C@]3(C(=O)O)CN(c4ncccn4)C[C@@H]3C2)o1 here?
**A.** 0.612%

**Q.** With COc1ccc(C[C@H]2CN(c3nnc(C)s3)CC[C@@H]2OC)cc1 as the molecule, how does the cytotoxicity at 70.5 h read?
**A.** -0.42%

**Q.** With O=C(NCc1ccccn1)[C@]12COC[C@H]1CN(Cc1ccccc1F)C2 as the molecule, how does the cytotoxicity at 70.5 h read?
**A.** -7.42%

**Q.** For O=C(c1cccnc1)N1CCN2C[C@H](Oc3cncnc3)C[C@H]2C1, which cytotoxicity at 70.5 h is on record?
**A.** -1.31%

**Q.** Which cytotoxicity at 70.5 h does the source give for c1ccc(NCc2cn3c(n2)CN(Cc2cccs2)CC3)nc1 here?
**A.** 8.31%

**Q.** With c1cc(CN2CCCn3cnc(COCC4CC4)c3C2)ccn1 as the molecule, how does the cytotoxicity at 70.5 h read?
**A.** -2.95%

**Q.** With O=C(O)[C@]12CCCN(Cc3ccncc3)C[C@H]1CN(c1ncccn1)C2 as the molecule, how does the cytotoxicity at 70.5 h read?
**A.** 2.52%

**Q.** For c1ccc(CN2CCc3ncnc(C4CCOC4)c3CC2)nc1 (centres undefined), which cytotoxicity at 70.5 h is on record?
**A.** -2.85%

**Q.** For Cc1cccc(CN2C[C@H](NS(C)(=O)=O)[C@@H]3OCCC[C@@H]32)n1, which cytotoxicity at 70.5 h is on record?
**A.** 4.73%

**Q.** For c1coc(CN2CCCC3(COCCN(Cc4c[nH]nn4)C3)C2)c1 (centres undefined), which cytotoxicity at 70.5 h is on record?
**A.** -2.53%
